Measured values: patent publication US6881741B2 (ViroChem Pharma Inc., priority 2001, dated 2005)

Molecular target: recombinant HCV NS5B (HCV RNA-dependent RNA polymerase) (Hepatitis C virus genotype 1b, UniProt P26663)
Experiment: biochemical
Conditions: HCV polymerase activity, list of compounds of Example 27; read-out: IC50 (polymerase activity)

Chain of recombinant HCV NS5B (HCV RNA-dependent RNA polymerase) (P26663 2420-3010 limits assumed): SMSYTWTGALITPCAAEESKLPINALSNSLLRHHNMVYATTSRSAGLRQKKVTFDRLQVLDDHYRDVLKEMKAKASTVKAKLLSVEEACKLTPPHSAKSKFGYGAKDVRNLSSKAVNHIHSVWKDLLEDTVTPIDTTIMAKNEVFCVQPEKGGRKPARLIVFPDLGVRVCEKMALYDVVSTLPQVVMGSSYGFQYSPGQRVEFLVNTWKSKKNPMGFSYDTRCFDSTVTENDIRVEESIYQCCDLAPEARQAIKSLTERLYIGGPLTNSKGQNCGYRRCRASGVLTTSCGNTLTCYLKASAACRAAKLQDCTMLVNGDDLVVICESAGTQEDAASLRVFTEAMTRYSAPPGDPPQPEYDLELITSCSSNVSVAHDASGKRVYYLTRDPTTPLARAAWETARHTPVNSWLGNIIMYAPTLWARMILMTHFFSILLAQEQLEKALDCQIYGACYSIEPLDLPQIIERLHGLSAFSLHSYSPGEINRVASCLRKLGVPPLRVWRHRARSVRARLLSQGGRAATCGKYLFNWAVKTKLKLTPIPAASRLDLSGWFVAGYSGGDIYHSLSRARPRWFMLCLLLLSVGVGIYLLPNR

Compound | IC50 [µM]
Cc1ccc(CN(C(=O)C2CC2)c2cc(-c3ccccc3)sc2C(=O)O)cc1 [Compound 469, 3-[CYCLOPROPANECARBONYL-(4- METHYL-BENZYL)-AMINO]-5-PHENYL- THIOPHENE-2-CARBOXYLIC ACID] | 5 to 20
CC1CCC(C(=O)N(c2cc(-c3ccccc3)sc2C(=O)O)C(C)C)C(C)C1 (stereo not shown) [Compound 407, 3-[(2,4-DIMETHYL- CYCLOHEXANECARBONYL)-ISOPROPYL- AMINO]-5-PHENYL-THIOPHENE-2- CARBOXYLIC ACID] | < 5
CCCC(=O)N(CC)c1cc(-c2ccccc2)sc1C(=O)O [Compound 493, 3-(BUTYRYL-ETHYL-AMINO)-5-PHENYL- THIOPHENE-2-CARBOXYLIC ACID] | 5 to 20
CC(C)C(=O)N(Cc1ccc(Cl)cc1)c1cc(-c2ccccc2)sc1C(=O)O [Compound 457, 3-[(4-CHLORO-BENZYL)-ISOBUTYRYL- AMINO]-5-PHENYL-THIOPHENE-2- CARBOXYLIC ACID] | 5 to 20
O=C(O)c1sc(-c2ccccc2)cc1N(Cc1ccc(C(F)(F)F)cc1)C(=O)C1CC1 [Compound 413, 3-[CYCLOPROPANECARBONYL-(4- TRIFLUOROMETHYL-BENZYL)-AMINO]-5- PHENYL-THIOPHENE-2-CARBOXYLIC ACID] | 5 to 20
CC(C)N(C(=O)[C@H]1CC[C@H](C)C[C@H]1O)c1cc(-c2ccc(F)cc2)sc1C(=O)O [Compound 560] | < 5
CC1CCC(C(=O)N(c2cc(-c3ccc(C#N)cc3)sc2C(=O)O)C(C)C)CC1 (stereo not shown) [Compound 576, 5-(4-CYANO-PHENYL-3-[ISOPROPYL-(4- METHYL-CYCLOHEXANECARBONYL)- AMINO]-THIOPHENE-2-CARBOXYLIC ACID] | < 5
CC(C)CC(=O)N(Cc1ccc([N+](=O)[O-])cc1)c1cc(-c2ccccc2)sc1C(=O)O [Compound 419, 3-[(3-METHYL-BUTYRYL)-(4-NITRO- BENZYL)-AMINO]-5-PHENYL-THIOPHENE- 2-CARBOXYLIC ACID] | < 5
CC(C)(C)c1ccc(CN(C(=O)C2CC2)c2cc(-c3ccccc3)sc2C(=O)O)cc1 [Compound 438, 3-[(4-TERT-BUTYL-BENZYL)- CYCLOPROPANECARBONYL-AMINO]-5- PHENYL-THIOPHENE-2-CARBOXYLIC ACID] | 5 to 20
CC(C)C(=O)N(Cc1ccc(F)cc1F)c1cc(-c2ccccc2)sc1C(=O)O [Compound 485, 3-[(2,4-DIFLUORO-BENZYL)- ISOBUTYRYL-AMINO]-5-PHENYL- THIOPHENE-2-CARBOXYLIC ACID] | 5 to 20
CC(C)(C)OC(=O)N1CCCC(N(C(=O)c2ccc(Cl)cc2Cl)c2cc(-c3ccccc3)sc2C(=O)O)CC1 (stereo not shown) [Compound 507, 4-[(2-CARBOXY-5-PHENYL-THIOPHEN-3- YL)-(2,4-DICHLORO-BENZOYL)-AMINO]- AZEPANE-1-CARBOXYLIC ACID TERT!- BUTYL ESTER] | < 5
CC(C)N(c1cc(-c2ccccc2)sc1C(=O)O)C(=O)[C@]1(C)CC[C@@H](C)CC1 [Compound 500, 3-[(1,4-DIMETHYL- CYCLOHEXANECARBONYL)-ISOPROPYL- AMINO]-5-PHENYL-THIOPHENE-2- CARBOXYLIC ACID] | < 5

Same assay, conditions: IC50

Compound | IC50 [µM]
CC1CCC(C(=O)N(c2cc(-c3ccccc3)sc2C(=O)O)C(C)C)CC1 (stereo not shown) [Compound 317, 3-[ISOPROPYL-(4-METHYL- CYCLOHEXANECARBONYL)-AMINO]-5- PHENYL-THIOPHENE-2-CARBOXYLIC ACID] | < 5

Same assay, conditions: related polymerase activity (Example 27 list); read-out: IC50

Compound | IC50 [µM]
O=C(O)c1sc(-c2ccccc2)cc1NS(=O)(=O)c1cccc([N+](=O)[O-])c1 [Compound 147, 3-(3-NITRO-BENZENESULFONYLAMINO)-5-PHENYL-THIOPHENE-2-CARBOXYLIC ACID] | < 5
Cc1ccccc1S(=O)(=O)Nc1cc(-c2ccccc2C(=O)O)sc1C(=O)O [Compound 115, 5-(2-CARBOXY-PHENYL)-3-(TOLUENE-2-SULFONYLAMINO)-THIOPHENE-2-CARBOXYLIC ACID] | 5 to 20
O=C(O)c1sc(-c2ccccc2)cc1NC(=O)N1CCC2(CC1)C(=O)NCN2c1ccccc1 [Compound 112, 3-[(4-OXO-1-PHENYL-1,3,8-TRIAZA-SPIRO[4,5]DECANE-8-CARBONYL)-AMINO]-5-PHENYL-THIOPHENE-2-CARBOXYLIC ACID] | < 5
Cc1ccc(C(=O)N(Cc2ccc(Cl)cc2)c2cc(-c3ccccc3)sc2C(=O)O)cc1 [Compound 341, 3-[(4-CHLORO-BENZYL)-(4-METHYL- BENZOYL)-AMINO]-5-PHENYL- THIOPHENE-2-CARBOXYLIC ACID] | < 5
Cc1ccccc1S(=O)(=O)Nc1cc(-c2cccc(OC(F)(F)F)c2)sc1C(=O)O [Compound 81, 3-(TOLUENE-2-SULFONYLAMINO)-5-(3-TRIFLUOROMETHOXY-PHENYL)-THIOPHENE-2-CARBOXYLIC ACID] | 5 to 20
Cc1ccc(C(=O)N(C)c2cc(-c3ccc(CO)cc3)sc2C(=O)O)cc1 [Compound 195, 5-(4-HYDROXYMETHYL-PHENYL)-3-[METHYL-(4-METHYL-BENZOYL)-AMINO]-THIOPHENE-2-CARBOXYLIC ACID] | 5 to 20
CC(=O)c1ccc(-c2cc(NS(=O)(=O)c3ccccc3C)c(C(=O)O)s2)cc1 [Compound 166, 5-(4-ACETYL-PHENYL)-3-(TOLUENE-2-SULFONYLAMINO)-THIOPHENE-2-CARBOXYLIC ACID] | < 5
Cc1ccccc1S(=O)(=O)Nc1cc(/C=C/c2ccc(Cl)cc2)sc1C(=O)O [Compound 134, 5-[2-(4-CHLORO-PHENYL)-VINYL]-3-(TOLUENE-2-SULFONYLAMINO)-THIOPHENE-2-CARBOXYLIC ACID] | 5 to 20
Cc1ccc(C(=O)N(C)c2cc(-c3ccc(O)cc3)sc2C(=O)O)cc1 [Compound 215, 5-(4-HYDROXY-PHENYL)-3-[METHYL-(4-METHYL-BENZOYL)-AMINO]-THIOPHENE-2-CARBOXYLIC ACID] | < 5
Cc1cc(Br)ccc1S(=O)(=O)Nc1cc(-c2ccccc2)sc1C(=O)O [Compound 220, 3-(4-BROMO-2-METHYL-BENZENESULFONYLAMINO)-5-PHENYL-THIOPHENE-2-CARBOXYLIC ACID] | < 5
Cc1ccc(S(=O)(=O)Nc2cc(-c3ccc(S(C)(=O)=O)cc3)sc2C(=O)O)c(C)c1 [Compound 321, 3-(2,4-DIMETHYL- BENZENESULFONYLAMINO)-5-(4- METHANESULFONYL-PHENYL)- THIOPHENE-2-CARBOXYLIC ACID] | < 5
Cc1ccc(S(=O)(=O)Nc2cc(-c3ccc(/C=C/C(=O)O)cc3)sc2C(=O)O)c(C)c1 [Compound 322, 5-[4-(2-CARBOXY-VINYL)-PHENYL]-3-(2,4- DIMETHYL-BENZENESULFONYLAMINO)- THIOPHENE-2-CARBOXYLIC ACID] | < 5
Cc1ccc(C(=O)N(C)c2cc(-c3ccc(F)c(F)c3)sc2C(=O)O)cc1 [Compound 270, 5-(3,4-DIFLUORO-PHENYL)-3-[METHYL-(4-METHYL-BENZOYL)-AMINO]-THIOPHENE-2-CARBOXYLIC ACID] | < 5
Cc1ccc(S(=O)(=O)Nc2cc(-c3ccc(F)cc3)sc2C(=O)O)cc1 [Compound 6, 5-(4-FLUORO-PHENYL)-3-(TOLUENE-4-SULFONYLAMINO)-THIOPHENE-2-CARBOXYLIC ACID] | < 5
C=CCN(C(=O)c1ccc(C)cc1)c1cc(-c2ccccc2)sc1C(=O)O [Compound 162, 3-[ALLYL-(4-METHYL-BENZOYL)-AMINO]-5-PHENYL-THIOPHENE-2-CARBOXYLIC ACID] | < 5
CC(=O)c1ccc(-c2cc(NS(=O)(=O)c3ccc(Cl)cc3)c(C(=O)O)s2)cc1 [Compound 238, 5-(4-ACETYL-PHENYL)-3-(4-CHLORO-BENZENESULFONYLAMINO)-THIOPHENE-2-CARBOXYLIC ACID] | < 5
O=C(O)c1sc(-c2ccc(Cl)cc2)cc1NS(=O)(=O)c1ccccn1 [Compound 116, 5-(4-CHLORO-PHENYL)-3-(PYRIDINE-2-SULFONYLAMINO)-THIOPHENE-2-CARBOXYLIC ACID] | 5 to 20
Cc1ccc(C(=O)N(c2cc(-c3ccccc3)sc2C(=O)O)C2CCN(C(=O)OC(C)(C)C)CC2)cc1 [Compound 364, 4-[(2-CARBOXY-5-PHENYL-THIOPHEN-3- YL)-(4-METHYL-BENZOYL)-AMINO]- PIPERIDINE-1-CARBOXYLIC ACID #TERT!-BUTYL ESTER] | < 5
CCC(C)N(C(=O)c1ccc(Cl)cc1Cl)c1cc(-c2ccccc2)sc1C(=O)O (stereo not shown) [Compound 261, 3-[SEC-BUTYL-(2,4-DICHLORO-BENZOYL)-AMINO]-5-PHENYL-THIOPHENE-2-CARBOXYLIC ACID] | < 5
Cc1ccc(C(=O)N(C)c2cc(-c3cc(F)cc(F)c3)sc2C(=O)O)cc1 [Compound 212, 5-(3,5-DIFLUORO-PHENYL)-3-[METHYL-(4-METHYL-BENZOYL)-AMINO]-THIOPHENE-2-CARBOXYLIC ACID] | < 5
Cc1cccc(-c2cc(NS(=O)(=O)c3ccccc3C)c(C(=O)O)s2)c1 [Compound 64, 3-(TOLUENE-2-SULFONYLAMINO)-5-M-TOLYL-THIOPHENE-2-CARBOXYLIC ACID] | < 5
COc1ccc(-c2cc(NS(=O)(=O)c3ccc(C)cc3C)c(C(=O)O)s2)cc1 [Compound 361, 3-(2,4-DIMETHYL- BENZENESULFONYLAMINO)-5-(4- METHOXY-PHENYL)-THIOPHENE-2- CARBOXYLIC ACID] | < 5
COC(=O)c1sc(-c2ccccc2)cc1NC(=O)c1ccccc1C(=O)O [Compound 51, 3-(2-CARBOXY-BENZOYLAMINO)-5-PHENYL-THIOPHENE-2-CARBOXYLIC ACID METHYL ESTER] | 5 to 20
Cc1cccc(S(=O)(=O)Nc2cc(-c3ccccc3)sc2C(=O)O)c1 [Compound 16, 5-PHENYL-3-(TOLUENE-3-SULFONYLAMINO)-THIOPHENE-2-CARBOXYLIC ACID] | 5 to 20
Cc1cc(S(=O)(=O)N(C)c2cc(-c3ccccc3)sc2C(=O)O)c(C)cc1Cl [Compound 5, 3-[(4-CHLORO-2,5-DIMETHYL-BENZENESULFONYL)-METHYL-AMINO]-5-PHENYL-THIOPHENE-2-CARBOXYLIC ACID] | 5 to 20
Cc1ccccc1S(=O)(=O)Nc1cc(-c2ccoc2)sc1C(=O)O [Compound 126, 5-FURAN-3-YL-3-(TOLUENE-2-SULFONYLAMINO)-THIOPHENE-2-CARBOXYLIC ACID] | < 5
CN(C(=O)c1ccc(C(F)(F)F)c(F)c1)c1cc(-c2ccccc2)sc1C(=O)O [Compound 279, 3-[(3-FLUORO-4-TRIFLUOROMETHYL-BENZOYL)-METHYL-AMINO]-5-PHENYL-THIOPHENE-2-CARBOXYLIC ACID] | 5 to 20
